Data as given in article PMC6753678, “Fueling Open Innovation for Malaria Transmission-Blocking Drugs: Hundreds of Molecules Targeting Early Parasite Mosquito Stages” (Frontiers in Microbiology, 2019).
Where two headings read alike, the source gives them in different places.

Legend:
[1] = tested on: 3D7-strain P. falciparum asexual parasites; experiment: P. falciparum asexual growth inhibition assay (Pf GIA); type: cell-based, Plasmodium falciparum; details: dose response confirmation; read-out: Pf asexual growth inhibition assays IC50
Outline: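 Parasites at 0.25% parasitemia, 2% hematocrit in Albumax-supplemented RPMI were exposed to compounds in dose response for 72 h at 37°C under 5% CO2/5% O2. Viability was read as LDH activity (NBT/diaphorase, A650 after freeze-thaw). Percent inhibition was calculated against chloroquine and DMSO controls, mean of three biological replicates.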

HepG2 cells = experiment: HepG2 cytotoxicity assay; details: for IC50: read-out: HepG2 cytotoxicity assay IC50, dose response confirmation; for Pb ODA (this manuscript) HepG2 cytoxicity: HepG2 cytotoxicity listed with the Pb ODA data set (this manuscript)
Outline: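 Cells at 2,500 per well in MEM with 10% fetal bovine serum and 1% NEAA were exposed to test compounds for 48 h at 37°C, 5% CO2. Viability was read by fluorescence, with percent inhibition calculated against 50 μM doxorubicin (positive) and DMSO (negative) controls.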

[2] = tested on: P. berghei ookinete development; details: for % inhibition, Replicate A / % inhibition, Replicate B: primary screen at 1 μM
[3] = HepG2 values of the three screens unified
[4] = read-out: Pb ODA IC50, this manuscript
[5] = read-out: Pb Ookinete development assay IC50, dose response confirmation
[6] = read-out: Pb ODA (this manuscript) IC50, P. berghei ookinete development assay, this manuscript

With Cc1cc(O)c(-c2ccc(Oc3ccc(F)cc3)cc2)c(C)n1 [TCMDC-137535] the IC50 [1] was 1.03 µM, the “HepG2 cytoxicity (Pb ODA, this manuscript)” value (HepG2 cells) was 0.28 µM and the Unified cytotox (HepG2 cells; [3]) was 0.28 µM. For the same compound, the IC50 (HepG2 cells) was 0.28 µM, the “Is compound selective in assay? Pb ODA active?” value (shortened to “Is compound selective”) ([2]; 1: YES, 0: NO) was 0 (0: NO) and the “% inhibition, Replicate A” value [2] was 57.60%. The “% inhibition, Replicate B” value [2] was 38.98%, the IC50 [2, 4] was 0.58 µM and the IC50 [2, 5] was 0.583 µM.

For Cc1cc(=O)c(-c2ccc(Oc3cccc(C(F)(F)F)c3)cc2)c(C)[nH]1 [TCMDC-137536], the IC50 [1] was 3.23 µM, the “Pb ODA (this manuscript) HepG2 cytoxicity” value (HepG2 cells) was 100.00 µM and the IC50 (HepG2 cells) was 100 µM. For the same compound, the “Is compound selective” value [2] was 1 (key: 1: YES; 0: NO), the “% inhibition, Replicate A” value ([2]; 1 µM) was 91.76% and the “% inhibition, Replicate B” value ([2]; 1 µM) was 80.63%. It also gave an IC50 [2, 6] of 2.65 µM and an IC50 [2, 5] of 2.65 µM.

For CCCCCCCCc1c(C)[nH]c(C)c(Cl)c1=O [TCMDC-137538], the IC50 [1] was 0.102 µM, the IC50 (HepG2 cells) was 4.79 µM and the “Unified cytotox” value (HepG2 cells; unified HepG2 value across the three screens) was 4.79 µM. The “Is compound selective” value ([2]; 1: YES, 0: NO) was 1 (1: YES), the “% inhibition, Replicate A” value [2] was 94.00% and the “% inhibition, Replicate B” value [2] was 90.22%. It also gave an IC50 [2, 4] of 0.13 µM and an IC50 [2, 5] of 0.131 µM.

In the case of CCN1CCN(CCNc2c3ccccc3nc3ccccc23)CC1.Cl [TCMDC-137545], the IC50 [1] is reported as 0.606 µM, the “HepG2 cytoxicity (Pb ODA, this manuscript)” value (HepG2 cells) is reported as 11.75 µM and the Unified cytotox (HepG2 cells; [3]) is reported as 11.75 µM. The IC50 (HepG2 cells) was 11.8 µM, the “Is compound selective” value ([2]; 1: YES, 0: NO) was 0 (0: NO) and the “% inhibition, Replicate A” value [2] was 68.50%. For the same compound, the “% inhibition, Replicate B” value [2] was 47.85%, the IC50 [2, 4] was 1.78 µM and the IC50 [2, 5] was 1.78 µM.

In the case of CCN1CCN(CCCNc2c3ccccc3nc3ccccc23)CC1.Cl [TCMDC-137546], the IC50 [1] is reported as 0.616 µM, the “HepG2 cytoxicity (Pb ODA, this manuscript)” value (HepG2 cells) is reported as 9.12 µM and the Unified cytotox (HepG2 cells; [3]) is reported as 9.12 µM. The IC50 (HepG2 cells) was 9.12 µM, the “Is compound selective” value ([2]; 1: YES, 0: NO) was 0 (0: NO) and the “% inhibition, Replicate A” value [2] was 55.87%. The “% inhibition, Replicate B” value [2] was 53.70%, the IC50 [2, 4] was 3.05 µM and the IC50 [2, 5] was 3.04 µM.

With CC(C)N1CCN(CCCNc2c3ccccc3nc3ccccc23)CC1.Cl [TCMDC-137547] the IC50 [1] was 0.518 µM, the “HepG2 cytoxicity (Pb ODA, this manuscript)” value (HepG2 cells) was 14.45 µM and the Unified cytotox (HepG2 cells; [3]) was 14.45 µM. The IC50 (HepG2 cells) was 14.5 µM, the “Is compound selective” value ([2]; 1: YES, 0: NO) was 0 (0: NO) and the “% inhibition, Replicate A” value [2] was 29.07%. For the same compound, the “% inhibition, Replicate B” value [2] was 62.42%, the IC50 [2, 4] was 3.71 µM and the IC50 [2, 5] was 3.71 µM.

With CCCN1CCN(CCNc2c3ccccc3nc3ccccc23)CC1 [TCMDC-137549] the IC50 [1] was 0.965 µM, the “HepG2 cytoxicity (Pb ODA, this manuscript)” value (HepG2 cells) was 7.41 µM and the Unified cytotox (HepG2 cells; [3]) was 7.41 µM. The IC50 (HepG2 cells) was 7.41 µM, the “Is compound selective” value ([2]; 1: YES, 0: NO) was 0 (0: NO) and the “% inhibition, Replicate A” value [2] was 61.15%. The “% inhibition, Replicate B” value [2] was 52.76%, the IC50 [2, 4] was 2.01 µM and the IC50 [2, 5] was 2.01 µM.

With Cl.c1ccc(CN2CCN(CCNc3c4ccccc4nc4ccccc34)CC2)cc1 [TCMDC-137571] the IC50 [1] was 0.446 µM, the “HepG2 cytoxicity (Pb ODA, this manuscript)” value (HepG2 cells) was 23.99 µM and the Unified cytotox (HepG2 cells; [3]) was 23.99 µM. For the same compound, the IC50 (HepG2 cells) was 24 µM, the “Is compound selective” value ([2]; 1: YES, 0: NO) was 0 (0: NO) and the “% inhibition, Replicate A” value [2] was 19.05%. For the same compound, the “% inhibition, Replicate B” value [2] was 55.37%, the IC50 [2, 4] was 2.89 µM and the IC50 [2, 5] was 2.9 µM.

With CC(C)N1CCN(CCCCNc2c3ccccc3nc3ccccc23)CC1.Cl [TCMDC-137573] the IC50 [1] was 0.01 µM, the “HepG2 cytoxicity (Pb ODA, this manuscript)” value (HepG2 cells) was 5.75 µM and the Unified cytotox (HepG2 cells; [3]) was 5.75 µM. For the same compound, the IC50 (HepG2 cells) was 5.75 µM, the “Is compound selective” value ([2]; 1: YES, 0: NO) was 0 (0: NO) and the “% inhibition, Replicate A” value [2] was 42.86%. For the same compound, the “% inhibition, Replicate B” value [2] was 78.36%, the IC50 [2, 4] was 2.89 µM and the IC50 [2, 5] was 2.89 µM.

With CCCN1CCN(CCCCNc2c3ccccc3nc3ccccc23)CC1.Cl [TCMDC-137576] the IC50 [1] was 0.238 µM, the “HepG2 cytoxicity (Pb ODA, this manuscript)” value (HepG2 cells) was 5.37 µM and the Unified cytotox (HepG2 cells; [3]) was 5.37 µM. The IC50 (HepG2 cells) was 5.37 µM, the “Is compound selective” value ([2]; 1: YES, 0: NO) was 0 (0: NO) and the “% inhibition, Replicate A” value [2] was 35.45%. The “% inhibition, Replicate B” value [2] was 63.99%, the IC50 [2, 4] was 2.33 µM and the IC50 [2, 5] was 2.33 µM.

For CCOC(=O)N1CCN(CCCCNc2c3ccc(Cl)cc3nc3ccc(OC)cc23)CC1.Cl [TCMDC-137579], the IC50 [1] was 0.03 µM, the “Pb ODA (this manuscript) HepG2 cytoxicity” value (HepG2 cells) was 5.50 µM and the IC50 (HepG2 cells) was 5.5 µM. The “Is compound selective” value [2] was 0 (key: 1: YES; 0: NO), the “% inhibition, Replicate A” value [2] was 26.46% and the “% inhibition, Replicate B” value [2] was 54.23%. For the same compound, the IC50 [2, 6] was 4.49 µM and the IC50 [2, 5] was 4.49 µM.

In the case of COc1ccc2nc3cc(Cl)ccc3c(NCCCN3CCNCC3)c2c1.Cl [TCMDC-137580], the IC50 [1] is reported as 0.056 µM, the “Pb ODA (this manuscript) HepG2 cytoxicity” value (HepG2 cells) is reported as 14.79 µM and the IC50 (HepG2 cells) is reported as 14.8 µM. For the same compound, the “Is compound selective” value [2] was 0 (key: 1: YES; 0: NO), the “% inhibition, Replicate A” value [2] was 53.44% and the “% inhibition, Replicate B” value [2] was 35.84%. It also gave an IC50 [2, 6] of 1.68 µM and an IC50 [2, 5] of 1.68 µM.

For Cc1nc2nc(N)nc(N)c2c(C)c1Cc1ccc(N)cc1.Cl [TCMDC-137633], the IC50 [1] was 0.287 µM, the “Pb ODA (this manuscript) HepG2 cytoxicity” value (HepG2 cells) was 0.08 µM and the IC50 (HepG2 cells) was 0.08 µM. For the same compound, the “Is compound selective” value [2] was 0 (key: 1: YES; 0: NO), the “% inhibition, Replicate A” value [2] was 2.48% and the “% inhibition, Replicate B” value [2] was 52.30%. The IC50 [2, 6] was 6.21 µM and the IC50 [2, 5] was 6.21 µM.
